According to ChEMBL document CHEMBL1155595, “Inhibition of T-lymphocyte proliferation by cucurbitacins from Picrorhiza scrophulariaeflora” (J Nat Prod, 2000):

Columns and labels:
[1] = Inhibition of phytohemagglutininin A-induced T-cell proliferation in human peripheral blood lymphocytes after 4 days by MTT assay; type: functional, cell-based; conditions: PBL, 96 h
[2] = Cytotoxicity against human peripheral blood lymphocytes assessed as LDH release upto 50 uM after 24 hrs; conditions: pbl
[3] = Cytotoxicity against human peripheral blood lymphocytes at <60 uM after 4 days by CFDA/PI labeling assay; conditions: pbl, 96 h

SMILES	IC50 [1] [nM]	Activity [2]	Activity [3] [%]
CC(C)(O)/C=C/C(=O)[C@@](C)(O)[C@H]1[C@H](O)C[C@@]2(C)[C@@H]3CC=C4[C@@H](C[C@H](O)[C@H](O)C4(C)C)[C@]3(C)CC[C@]12C [DEACETYLPICRACIN]	1000	Non-toxic	< 10
CC(=O)OC(C)(C)/C=C/C(=O)[C@@](C)(O)[C@H]1[C@H](O)C[C@@]2(C)[C@@H]3CC=C4[C@@H](C[C@H](O)[C@H](O)C4(C)C)[C@]3(C)CC[C@]12C [PICRACIN]	1000	Non-toxic	< 10
